Target: Recombinant human liver glucokinase (Homo sapiens (Human), UniProt P35557)
Assay: Glucokinase activation assay (G6PDH-coupled, Thio-NADH absorbance at 405 nm)
Format: biochemical
Conditions: for EC50: 2.5 mM Glu, 30° C.
Source text: The glucokinase activity can, for instance, be determined without directly measuring glucose-6-phosphate by measuring the amount of Thio-NADH generated during the production of phosphogluconolactone from glucose-6-phosphate by a reporter enzyme glucose-6-phosphate dehydrogenase.
To test the exemplified compounds, the following assay was employed. Recombinant human liver glucokinase was expressed as a FLAG fusion protein in E. coli, and purified on […] M2 AFFINITY GEL (Sigma). The assay was carried out at 30° C. in a 96-well plate. In the plate was distributed 69 μl each of assay buffer (25 mM Hepes Buffer: pH=7.2, 2 mM MgCl2, 1 mM ATP, 0.5 mM TNAD, 1 mM dithiothreitol), to which was added 1 μl of a DMSO solution of the compound or DMSO as control. Then, 20 μl of pre-ice-cooled enzyme mixture (FLAG-GK, 20 U/ml G6PDH) was distributed thereto, to which was added 10 μl of 25 mM glucose as substrate to initiate the reaction (final glucose concentration=2.5 mM). After starting the reaction, the absorbance at 405 nm was measured every 30 seconds for 10 minutes to evaluate the compound based on the initial increase for 5 minutes. FLAG-GK was added so that the increase of absorbance after 5 minutes fell between 0.05 to 0.1 in the presence of 1% DMSO.
The OD values of the respective compounds were measured in the respective concentrations, wherein the OD value of DMSO as control is regarded as 100%.

Recombinant human liver glucokinase, sequence (P35557 other isoform, or with tags, fused parts or gaps): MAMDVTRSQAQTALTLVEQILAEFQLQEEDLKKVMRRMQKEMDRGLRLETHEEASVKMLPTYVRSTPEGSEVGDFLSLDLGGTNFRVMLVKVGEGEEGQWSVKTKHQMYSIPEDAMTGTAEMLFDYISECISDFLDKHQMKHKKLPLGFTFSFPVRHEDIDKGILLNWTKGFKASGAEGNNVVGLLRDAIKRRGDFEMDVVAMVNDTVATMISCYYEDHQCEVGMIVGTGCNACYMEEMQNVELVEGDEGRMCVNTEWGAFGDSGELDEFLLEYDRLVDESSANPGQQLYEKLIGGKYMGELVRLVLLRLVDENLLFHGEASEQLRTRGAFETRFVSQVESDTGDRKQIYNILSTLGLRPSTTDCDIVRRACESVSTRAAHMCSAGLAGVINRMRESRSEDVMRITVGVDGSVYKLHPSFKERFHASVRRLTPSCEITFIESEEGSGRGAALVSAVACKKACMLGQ

| Compound | Emax [%] | EC50 [µM] |
| --- | --- | --- |
| CCOC(=O)Cc1nc(NC(=O)c2nc(Sc3nncn3C)ccc2Sc2ccc(Cl)c(Cl)c2)sc1Cl [Example 53, Ethyl {5-chloro-2-[({3-[(3,4-dichlorophenyl)sulfanyl]-6-[(4-methyl-4H-1,2,4-triazol-3-yl)sulfanyl]pyridin-2-yl}carbonyl)amino]-1,3-thiazol-4-yl}acetate] | 426 | 0.0076 |
| COc1ccc(Sc2ccc(Sc3nncn3C)nc2C(=O)Nc2ncc(SCC(C)(C)C(=O)O)s2)cc1 [Example 6, 3-({2-[({3-[(4-methoxyphenyl)sulfanyl]-6-[(4-methyl-4H-1,2,4-triazol-3-yl)sulfanyl]pyridin-2-yl}carbonyl)amino]-1,3-thiazol-5-yl}sulfanyl)-2,2-dimethylpropanoic acid] | 425 | 0.016 |
| Cn1cnnc1Sc1ccc(Sc2ccc(C(F)(F)F)cc2)c(C(=O)Nc2ncc(CCC(=O)O)s2)n1 [Example 49, 3-(2-{[(6-[(4-Methyl-4H-1,2,4-triazol-3-yl)sulfanyl]-3-{[4-(trifluoromethyl)phenyl]sulfanyl}pyridin-2-yl)carbonyl]amino}-1,3-thiazol-5-yl)propanoic acid] | 549 | 0.173 |
| COc1ccc(Sc2ccc(Sc3nncn3C)nc2C(=O)Nc2ncc(CCC(=O)O)s2)cc1 [Example 8, 3-{2-[({3-[(4-Methoxyphenyl)sulfanyl]-6-[(4-methyl-4H-1,2,4-triazol-3-yl)sulfanyl]pyridin-2-yl}carbonyl)amino]-1,3-thiazol-5-yl}propanoic acid] | 626 | 0.0587 |
| Cn1cnnc1Sc1ccc(Sc2ccc(F)cc2)c(C(=O)Nc2ncc(SCC(C)(C)C(=O)O)s2)n1 [Example 21, 3-({2-[({3-[(4-Fluorophenyl)sulfanyl]-6-[(4-methyl-4H-1,2,4-triazol-3-yl)sulfanyl]pyridin-2-yl}carbonyl)amino]-1,3-thiazol-5-yl}sulfanyl)-2,2-dimethylpropanoic acid] | 473 | 0.0172 |
| Cn1cnnc1Sc1ccc(Sc2ccc(Cl)c(Cl)c2)c(C(=O)Nc2ncc(SCC(=O)O)s2)n1 [Example 52, ({2-[({3-[(3,4-Dichlorophenyl)sulfanyl]-6-[(4-methyl-4H-1,2,4-triazol-3-yl)sulfanyl]pyridin-2-yl}carbonyl)amino]-1,3-thiazol-5-yl}sulfanyl)acetic acid] | 431 | 0.0166 |
| O=C(O)CSc1cnc(NC(=O)c2nc(Sc3ccccn3)ccc2Sc2ccc(F)cc2)s1 [Example 36, ({2-[({3-[(4-Fluorophenyl)sulfanyl]-6-(pyridin-2-ylsulfanyl)pyridin-2-yl}carbonyl)amino]-1,3-thiazol-5-yl}sulfanyl)acetic acid] | 514 | 0.034 |
| COC(=O)CCc1cnc(NC(=O)c2nc(Sc3nncn3C)ccc2Sc2ccc(C(F)(F)F)cc2)s1 [Example 48, Methyl 3-(2-{[(6-[(4-methyl-4H-1,2,4-triazol-3-yl)sulfanyl]-3-{[4-(trifluoromethyl)phenyl]sulfanyl}pyridin-2-yl)carbonyl]amino}-1,3-thiazol-5-yl)propanoate] | 428 | 0.0718 |
| CNC(=O)CSc1cnc(NC(=O)c2nc(Sc3nncn3C)ccc2Sc2ccc(OC)cc2)s1 [Example 3, 3-[(4-methoxyphenyl)sulfanyl]-N-(5-{[2-(methylamino)-2-oxoethyl]sulfanyl}-1,3-thiazol-2-yl)-6-[(4-methyl-4H-1,2,4-triazol-3-yl)sulfanyl]pyridine-2-carboxamide] | 572 | 0.0108 |

— patent US9527838B2, “2-pyridinecarboxamide derivatives, compositions containing such compounds, and methods of treatment” (priority 2012, dated 2016)
